{"source": "patent US20100143899A1", "about": "“METHODS AND PRODUCTS FOR DIAGNOSING CANCER” (University of Vermont and State Agricultural College, priority 2005, published 2010)", "key": {"[1]": {"test_system": "HOXB13 mRNA in melanoma cell lines", "test": "Quantitative RT-PCR of HOXB13 expression after 5AzadC treatment", "format": "cell-based, human", "conditions": "in 2 out of 3 cell lines with promoter region methylation", "experimental": "(§1) 5AzadC treatment and microarray analysis. Cells were grown to 50% confluence in 100 mm culture plates and treated with 5 μM 5AzadC (Sigma; St. Louis, Mo.) dissolved in growth media. Fresh 5AzadC media was added every 24 hours until the end of the assay (96 hours). RNA and DNA were isolated from a batch of 5AzadC treated cells every 24 hours starting with 0 hour controls. RNA was isolated following 0 hr and 48 hr 5AzadC treatment of six melanoma cell lines (MelJuSo, UACC 903, c8161, Neo-6 c8161, WM1205 and WM35) and used for the re-expression microarray analysis. Total RNA was isolated using the RNeasy kit (Qiagen; Valencia, Calif.) according to manufacturer's instructions. […] Probe set signal calls with p values greater than 0.01 were not further evaluated. […]\n(§2) Bisulfite sequencing and quantitative PCR. […] Particular CpG sites were scored as positive if the C:T peak ratio exceeded 1:3 (at least 25% methylation). Real time quantitative PCR was performed for validation of microarray expression data of selected candidate genes by using 2.5 μl of 100 fold diluted cDNA template and 0.2 μM gene specific primers in a 25 μl PCR reaction using JumpStart SYBR green kit (Sigma) according to manufacturer's instructions in an ABI 7700. The reactions were performed in duplicate, CT values obtained were normalized to GAPDH levels and quantification was performed using the comparative CT method."}, "[2]": {"test_system": "six human melanoma cell lines (MelJuSo, UACC 903, c8161, Neo-6 c8161, WM1205 and WM35)", "test": "Re-expression microarray analysis after 5AzadC treatment", "format": "cell-based", "conditions": "5 μM 5AzadC, 48 hours, relative to untreated cells; in at least one of the six melanoma cell lines; HG U133A microarray", "experimental": "as §1, with “instructions. Preparation of double stranded cDNA and in-vitro transcription (IVT) was as per manufacturer's recommendations. Biotinylated cRNA obtained from IVT were fragmented and hybridized on Human Genome U133A array as per manufacturer's recommendations (Affymetrix; Santa Clara, Calif.).” for “instructions.”\nIn order to determine DNA methylation-related expression changes, six human melanoma cell lines were treated with 5AzadC and compared for expression changes at 48 hours post-treatment relative to untreated melanoma cell lines. […] No DNA methylation was detected in primary human melanocytes at any of the loci. […]"}, "[3]": {"test_system": "QPCT promoter region in MelJuSo melanoma cell line", "test": "Bisulfite sequencing of promoter region after 5AzadC treatment", "format": "cell-based, human", "conditions": "48 h, bisulfite sequencing (FIG. 5)", "experimental": "FIG. 5A represents the original sequence for comparison (SEQ ID NO:58).\nBisulfite sequencing and quantitative PCR. DNA was isolated from cells and tissues using standard phenol-chloroform extraction. Bisulfite modification was performed as previously described (24) on DNA from melanocytes, melanoma cell lines prior to and after 48 hr treatment with 5AzadC and DNA from melanoma tissues. PCR reactions were carried out using 50 ng of bisulfite modified DNA in a 30 μl volume with a 0.2 μM primer concentration (primer sequences are provided in the Table 2 with the amplified regions of selected genes provided in Table 3). PCR products were purified using the Qiaquick Gel Extraction kit (Qiagen) and directly sequenced on the ABI 3100-Avant automated DNA sequencer. Particular CpG sites were scored as positive if the C:T peak ratio exceeded 1:3 (at least 25% methylation). Real time quantitative PCR was performed for validation of microarray expression data of selected candidate genes by using 2.5 μl of 100 fold diluted cDNA template and 0.2 μM gene specific primers in a 25 μl PCR reaction using JumpStart SYBR green kit (Sigma) according to manufacturer's instructions in an ABI 7700. The reactions were performed in duplicate, CT values obtained were normalized to GAPDH levels and quantification was performed using the comparative CT method."}, "[4]": {"test_system": "SYK mRNA in melanoma cell lines", "test": "Quantitative RT-PCR of SYK expression after 5AzadC treatment", "format": "cell-based, human", "conditions": "in a subset (4/8) of cell lines with SYK methylation", "experimental": "as §1, §2"}, "[5]": {"test_system": "methylated candidate genes in melanoma cell lines", "test": "Quantitative RT-PCR of candidate genes after 5AzadC treatment", "format": "cell-based, human", "conditions": "expression relative to melanocytes", "experimental": "as §1, §2"}}, "note": "“Also recorded” adds a separate entry of the source."}
{"compound": "Nc1ncn([C@H]2C[C@H](O)[C@@H](CO)O2)c(=O)n1", "note": "[5AzadC, 5-Aza-2′-deoxycytidine]", "values": [{"measurement": "Re-expression of HOXB13", "setting": "[1]", "value": "Re-expression of HOXB13 occurred"}, {"measurement": "Increase of expression of 150 genes upon 5AzadC treatment", "setting": "[2]", "value": "greater than 4 fold"}, {"measurement": "Demethylation of promoter region", "setting": "[3]", "value": "Demethylation was also induced; also recorded: demethylation of the promoter region"}, {"measurement": "Upregulation of SYK", "setting": "[4]", "value": "> 2", "unit": "fold"}, {"measurement": "Reversal of loss of expression of promoter-methylated candidate genes", "setting": "[5]", "value": "could be reversed in the majority of cases"}]}
